The values below come from US11759455B2, “Substituted 1H-imidazo[4,5-b]pyridin-2(3H)-ones and their use as GLUN2B receptor modulators” (JANSSEN PHARMACEUTICA NV, priority 2016, dated 2023).

Where two headings read alike, the source gives them in different places.

As usually defined, the IC50 is the concentration at which inhibition is half-maximal.

The target in this assay is T1, human GluN1/GluN2B NMDA receptors (Homo sapiens, UniProt Q13224).
T1 construct: expressed in transfected cells
Kind of assay: Cell-based calcium flux (FLIPR) assay on cloned human NR1/NR2B ion channels expressed in mammalian cells (standard and HTS buffer variants). (In general: A change in cytosolic calcium serves as a functional read-out for many receptors and channels.)

[1] abbreviates: HTS assay buffer (1.5 mM MgCl2 in dye loading buffer; 150 mM NaCl, 3 mM KCl in assay buffer), human GluN1/GluN2B, read-out: NR2B IC50 (μM) HTS assay.
[2] abbreviates: standard assay buffer (0.5 mM MgCl2 dye loading; 137 mM NaCl, 4 mM KCl assay buffer), human GluN1/GluN2B cells, read-out: NR2B IC50 (μM) standard assay.
Setting [3] is: standard assay buffer (0.5 mM MgCl2 in dye loading buffer; 137 mM NaCl, 4 mM KCl in assay buffer), human GluN1/GluN2B, read-out: NR2B IC50 (μM) standard assay.
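Also: stable Tet-On inducible cell line, Ca2+ influx triggered by glutamate at about EC40 plus 10 µM glycine, fluorescent dye read-out over 5 min, normalized to control wells.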

T1 sequence (Q13224 27-1484, other chains not shown): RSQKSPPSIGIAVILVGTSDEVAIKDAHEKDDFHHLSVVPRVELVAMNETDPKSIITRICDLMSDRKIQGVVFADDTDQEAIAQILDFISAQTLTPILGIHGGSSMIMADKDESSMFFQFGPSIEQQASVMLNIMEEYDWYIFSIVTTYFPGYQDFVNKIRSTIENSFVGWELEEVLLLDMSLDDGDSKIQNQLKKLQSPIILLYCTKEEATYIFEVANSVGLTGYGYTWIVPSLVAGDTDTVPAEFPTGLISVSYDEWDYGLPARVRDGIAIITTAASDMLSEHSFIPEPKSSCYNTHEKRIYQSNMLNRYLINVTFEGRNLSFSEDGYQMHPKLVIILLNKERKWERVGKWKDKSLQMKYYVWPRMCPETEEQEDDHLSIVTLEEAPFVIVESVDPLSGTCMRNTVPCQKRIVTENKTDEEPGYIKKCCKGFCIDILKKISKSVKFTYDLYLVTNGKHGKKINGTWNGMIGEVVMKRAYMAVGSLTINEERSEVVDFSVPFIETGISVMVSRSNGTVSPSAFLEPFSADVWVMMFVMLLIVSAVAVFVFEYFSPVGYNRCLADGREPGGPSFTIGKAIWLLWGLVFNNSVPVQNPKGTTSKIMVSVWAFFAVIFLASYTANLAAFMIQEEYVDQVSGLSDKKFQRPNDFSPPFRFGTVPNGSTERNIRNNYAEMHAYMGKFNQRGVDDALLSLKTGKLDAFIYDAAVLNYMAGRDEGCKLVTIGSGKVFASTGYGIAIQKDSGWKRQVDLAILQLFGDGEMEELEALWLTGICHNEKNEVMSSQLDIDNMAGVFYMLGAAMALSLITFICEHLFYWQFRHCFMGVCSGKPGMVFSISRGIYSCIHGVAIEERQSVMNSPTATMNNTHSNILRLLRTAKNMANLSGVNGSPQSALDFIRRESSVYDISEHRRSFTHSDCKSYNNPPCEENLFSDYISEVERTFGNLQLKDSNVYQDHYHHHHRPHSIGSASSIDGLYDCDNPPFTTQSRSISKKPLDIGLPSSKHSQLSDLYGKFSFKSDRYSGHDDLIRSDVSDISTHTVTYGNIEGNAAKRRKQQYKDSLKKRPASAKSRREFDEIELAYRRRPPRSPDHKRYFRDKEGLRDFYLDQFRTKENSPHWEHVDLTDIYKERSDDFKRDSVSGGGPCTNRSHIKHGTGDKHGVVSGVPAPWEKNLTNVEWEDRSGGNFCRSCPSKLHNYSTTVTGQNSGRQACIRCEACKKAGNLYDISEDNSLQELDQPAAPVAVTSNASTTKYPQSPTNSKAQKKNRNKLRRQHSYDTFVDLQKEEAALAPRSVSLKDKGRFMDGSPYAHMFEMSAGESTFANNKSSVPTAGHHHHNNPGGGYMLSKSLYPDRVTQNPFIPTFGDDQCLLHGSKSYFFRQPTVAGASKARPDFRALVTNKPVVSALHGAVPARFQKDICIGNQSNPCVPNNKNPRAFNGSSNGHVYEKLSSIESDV

With `COc1ccc(-c2cnc3[nH]c(=O)n(CC4CC4)c3c2)c(OC)c1` [Example 465, 1-(Cyclopropylmethyl)-6-(2,4-dimethoxyphenyl)-3H-imidazo[4,5-b]pyridin-2-one], under setting [1], the IC50 was 14.4 µM. In the case of `Cn1c(=O)n(CCN2CCC2)c2cc(-c3cccc(C(F)(F)F)c3)cnc21` [Example 18, 1-[2-(Azetidin-1-yl)ethyl]-3-methyl-6-[3-(trifluoromethyl)phenyl]imidazo[4,5-b]pyridin-2-one], under setting [2], the IC50 came to 0.7 µM.

`Cn1c(=O)n(Cc2ccncn2)c2cc(-c3ccc(F)c(F)c3)cnc21` [Example 70, 6-(3,4-Difluorophenyl)-3-methyl-1-(pyrimidin-4-ylmethyl)imidazo[4,5-b]pyridin-2-one]: the IC50 under setting [2] was found to be 2.21 µM. For the molecule `COc1ccc(-c2cnc3[nH]c(=O)n(CC4CC4)c3c2)cc1C` [Example 468, 1-(Cyclopropylmethyl)-6-(4-methoxy-3-methyl-phenyl)-3H-imidazo[4,5-b]pyridin-2-one], the half-maximal inhibitory concentration (IC50) under setting [1] was 4.17 µM. Regarding `O=c1[nH]c2ncc(-c3cccc(C(F)(F)F)c3)cc2n1Cc1ccc(F)nc1` [Example 238, 1-[(6-Fluoro-3-pyridyl)methyl]-6-[3-(trifluoromethyl)phenyl]-3H-imidazo[4,5-1D]pyridin-2-one], the IC50 under setting [2] is 0.088 µM. On the same count and under the same terms, next, `Cc1c(F)ccc(-c2cnc3c(c2)n(Cc2ccncn2)c(=O)n3C)c1F` [Example 72, 6-(2,4-Difluoro-3-methyl-phenyl)-3-methyl-1-(pyrimidin-4-ylmethyl)imidazo[4,5-b]pyridin-2-one]: 0.482 µM. As to `CN(C)C(=O)Cn1c(=O)n(C)c2ncc(-c3cc(F)c(F)c(C(F)(F)F)c3)cc21` [Example 431, 2-[6-[3,4-Difluoro-5-(trifluoromethyl)phenyl]-3-methyl-2-oxo-imidazo[4,5-b]pyridin-1-yl]-N,N-dimethyl-acetamide], the IC50 under setting [3] came out at 0.095 µM.

For `Cc1c(F)ccc(-c2cnc3c(c2)n(CC(=O)N2CCC2)c(=O)n3CF)c1F` [Example 595, 1-[2-(Azetidin-1-yl)-2-oxo-ethyl]-6-(2,4-difluoro-3-methyl-phenyl)-3-(fluoromethyl)imidazo[4,5-b]pyridin-2-one], the 50% inhibitory concentration (IC50) under setting [3] is 0.974 µM. As to `Cc1cccc(-c2cnc3c(c2)n(Cc2cccnc2)c(=O)n3C)c1F` [Example 357, 6-(2-Fluoro-3-methyl-phenyl)-3-methyl-1-(3-pyridylmethyl)imidazo[4,5-b]pyridin-2-one], the half-maximal inhibitory concentration (IC50) under setting [3] is 0.118 µM. The same measure, in the same setting: next, `Cn1c(=O)n(Cc2cncc(F)c2)c2cc(-c3ccc(F)c(F)c3F)cnc21` [Example 347, 1-[(5-Fluoro-3-pyridyl)methyl]-3-methyl-6-(2,3,4-trifluorophenyl)imidazo[4,5-b]pyridin-2-one]: 0.621 µM; `CN(C)C(=O)Cn1c(=O)n(C)c2ncc(-c3cccc(C(F)(F)F)c3)cc21` [Example 419, N,N-Dimethyl-2-[3-methyl-2-oxo-6-[3-(trifluoromethyl)phenyl]imidazo[4,5-b]pyridin-1-yl]acetamide]: 0.047 µM. In the case of `CCOc1ccccc1-c1cnc2[nH]c(=O)n(Cc3ccccc3F)c2c1` [Example 503, 6-(2-Ethoxyphenyl)-1-[(2-fluorophenyl)methyl]-3H-imidazo[4,5-b]pyridin-2-one], the half-inhibitory concentration (IC50) under setting [1] stood at 5.49 µM. With `Cn1c(=O)n(CC(=O)N2CC(F)(F)C2)c2cc(-c3ccc(C(F)(F)F)s3)cnc21` [Example 430, 1-[2-(3,3-Difluoroazetidin-1-yl)-2-oxo-ethyl]-3-methyl-6-[5-(trifluoromethyl)-2-thienyl]imidazo[4,5-b]pyridin-2-one], the IC50 under setting [3] was 0.028 µM. For `Cc1ccncc1Cn1c(=O)[nH]c2ncc(-c3cc(F)c(F)c(F)c3)cc21` [Example 312, 1-[(4-Methyl-3-pyridyl)methyl]-6-(3,4,5-trifluorophenyl)-3H-imidazo[4,5-b]pyridin-2-one], under setting [2], the IC50 is 0.002 µM. For `COc1cccc(-c2cnc3[nH]c(=O)n(CC(=O)NC4CC4)c3c2)c1` [Example 450, N-Cyclopropyl-2-[6-(3-methoxyphenyl)-2-oxo-3H-imidazo[4,5-b]pyridin-1-yl]acetamide], the IC50 under setting [1] worked out at 1.76 µM. As for `Cc1cc(-c2cnc3c(c2)n(Cc2cnccn2)c(=O)n3C)ccc1F` [Example 47, 6-(4-Fluoro-3-methyl-phenyl)-3-methyl-1-(pyrazin-2-ylmethyl)imidazo[4,5-b]pyridin-2-one], under setting [2], the half-inhibitory concentration (IC50) stood at 0.113 µM. On to `CCC(=O)Cn1c(=O)n(C)c2ncc(-c3cccc(C(F)(F)F)c3)cc21` [Example 388, 3-Methyl-1-(2-oxobutyl)-6-[3-(trifluoromethyl)phenyl]imidazo[4,5-b]pyridin-2-one], for which the 50% inhibitory concentration (IC50) under setting [3] turned out to be 0.05 µM. On to `O=c1[nH]c2ncc(-c3ccccc3)cc2n1CCN1CC(F)C1` [Example 188, 1-[2-(3-Fluoroazetidin-1-yl)ethyl]-6-phenyl-3H-imidazo[4,5-b]pyridin-2-one], for which, under setting [2], the IC50 was 1.44 µM. Take `Cn1c(=O)n(Cc2cccnn2)c2cc(-c3cc(F)cc(C(F)(F)F)c3)cnc21` [Example 383, 6-[3-Fluoro-5-(trifluoromethyl)phenyl]-3-methyl-1-(pyridazin-3-ylmethyl)imidazo[4,5-b]pyridin-2-one]: the IC50 under setting [3] is 0.041 µM. On the same count and under the same terms, to `Cc1cc(C)cc(-c2cnc3[nH]c(=O)n(CC4CC4)c3c2)c1` [Example 474, 1-(Cyclopropylmethyl)-6-(3,5-dimethylphenyl)-3H-imidazo[4,5-b]pyridin-2-one] belongs 3.57 µM. Consider `O=c1[nH]c2ncc(-c3cccc(OC(F)F)c3)cc2n1Cc1cccnc1` [Example 300, 6-[3-(Difluoromethoxy)phenyl]-1-(3-pyridylmethyl)-3H-imidazo[4,5-b]pyridin-2-one], for which the IC50 under setting [2] worked out at 0.03 µM. The same measure, in the same setting: to `O=c1[nH]c2ncc(-c3cccc(C(F)(F)F)c3)cc2n1Cc1ccccn1` [Example 228, 1-(2-Pyridylmethyl)-6-[3-(trifluoromethyl)phenyl]-3H-imidazo[4,5-b]pyridin-2-one] belongs 0.083 µM. Regarding `CN(C)C(=O)Cn1c(=O)n(C)c2ncc(-c3ccc(F)c(OC(F)F)c3)cc21` [Example 587, 2-[6-[3-(Difluoromethoxy)-4-fluoro-phenyl]-3-methyl-2-oxo-imidazo[4,5-b]pyridin-1-yl]-N,N-dimethyl-acetamide], under setting [3], the IC50 is 0.035 µM. Consider `CN(C)C(=O)Cn1c(=O)n(C)c2ncc(-c3cccc(C(F)(F)F)c3F)cc21` [Example 424, 2-[6-[2-Fluoro-3-(trifluoromethyl)phenyl]-3-methyl-2-oxo-imidazo[4,5-b]pyridin-1-yl]-N,N-dimethyl-acetamide], for which the IC50 under setting [3] was found to be 0.028 µM.

For the molecule `COc1cccc(-c2cnc3[nH]c(=O)n(CC4CCCO4)c3c2)c1` (stereo not drawn) [Example 475, 6-(3-Methoxyphenyl)-1-(tetrahydrofuran-2-ylmethyl)-3H-imidazo[4,5-b]pyridin-2-one], the IC50 under setting [1] came out at 0.157 µM. The same measure, in the same setting: next, `O=c1[nH]c2ncc(-c3cc(F)cc(F)c3)cc2n1CC1CC1` [Example 470, 1-(Cyclopropylmethyl)-6-(3,5-difluorophenyl)-3H-imidazo[4,5-b]pyridin-2-one]: 0.509 µM. With `Cn1c(=O)n(Cc2cncc(Cl)c2)c2cc(-c3cccc(C(F)(F)F)c3)cnc21` [Example 366, 1-[(5-Chloro-3-pyridyl)methyl]-3-methyl-6-[3-(trifluoromethyl)phenyl]imidazo[4,5-b]pyridin-2-one], the IC50 under setting [3] came to 0.433 µM.

Consider `COc1ccc(-c2cnc3[nH]c(=O)n(CC4CC4)c3c2)cc1F` [Example 469, 1-(Cyclopropylmethyl)-6-(3-fluoro-4-methoxy-phenyl)-3H-imidazo[4,5-b]pyridin-2-one], for which, under setting [1], the half-inhibitory concentration (IC50) worked out at 0.944 µM. With `Cc1noc(Cn2c(=O)n(C)c3ncc(-c4cccc(C(F)(F)F)c4)cc32)n1` [Example 76, 3-Methyl-1-[(3-methyl-1,2,4-oxadiazol-5-yl)methyl]-6-[3-(trifluoromethyl)phenyl]imidazo[4,5-b]pyridin-2-one], the IC50 under setting [2] was found to be 0.218 µM. For the molecule `Cc1cc(Cn2c(=O)[nH]c3ncc(-c4ccc(F)cc4C)cc32)no1` [Example 522, 6-(4-Fluoro-2-methyl-phenyl)-1-[(5-methylisoxazol-3-yl)methyl]-3H-imidazo[4,5-b]pyridin-2-one], under setting [3], the IC50 was found to be 0.034 µM. Same read-out and setting: to `Cn1c(=O)n(Cc2cncc(Cl)c2)c2cc(-c3cc(F)c(F)c(F)c3)cnc21` [Example 370, 1-[(5-Chloro-3-pyridyl)methyl]-3-methyl-6-(3,4,5-trifluorophenyl)imidazo[4,5-b]pyridin-2-one] belongs 0.131 µM. For `Cn1c(=O)n(Cc2cccnn2)c2cc(-c3ccc(F)s3)cnc21` [Example 85, 6-(5-Fluoro-2-thienyl)-3-methyl-1-(pyridazin-3-ylmethyl)imidazo[4,5-b]pyridin-2-one], the IC50 under setting [2] worked out at 0.157 µM.

As to `O=c1[nH]c2ncc(-c3cccc(C(F)(F)F)c3)cc2n1Cc1cccc(F)c1` [Example 222, 1-[(3-Fluorophenyl)methyl]-6-[3-(trifluoromethyl)phenyl]-3H-imidazo[4,5-b]pyridin-2-one], the IC50 under setting [2] was 0.479 µM. Regarding `CN(C)C(=O)Cn1c(=O)n(C)c2ncc(-c3ccc(Cl)c(OC(F)F)c3)cc21` [Example 591, 2-[6-[4-Chloro-3-(difluoromethoxy)phenyl]-3-methyl-2-oxo-imidazo[4,5-b]pyridin-1-yl]-N,N-dimethyl-acetamide], under setting [3], the IC50 stood at 0.034 µM. `Cn1c(=O)n(CC(=O)NC2(C)COC2)c2cc(-c3cccc(C(F)(F)F)c3)cnc21` [Example 199, N-(3-Methyloxetan-3-yl)-2-[3-methyl-2-oxo-6-[3-(trifluoromethyl)phenyl]imidazo[4,5-b]pyridin-1-yl]acetamide]: the half-inhibitory concentration (IC50) under setting [2] stood at 2.66 µM. On the same count and under the same terms, next, `Cc1cncc(Cn2c(=O)[nH]c3ncc(-c4cccc(Cl)c4)cc32)c1` [Example 273, 6-(3-Chlorophenyl)-1-[(5-methyl-3-pyridyl)methyl]-3H-imidazo[4,5-b]pyridin-2-one]: 0.096 µM.
